Measured values: paper PMC4506373 (Journal of Ginseng Research, 2014)

Test system: special ginsenosidase type-I
Details: 0.02 M acetate buffer pH 5.0, 45°C; hydrolysis of 3-O-Glc of Rb2 to C-O

CC(C)=CCC[C@](C)(O[C@@H]1O[C@H](CO[C@@H]2OC[C@H](O)[C@H](O)[C@H]2O)[C@@H](O)[C@H](O)[C@H]1O)[C@H]1CC[C@]2(C)[C@@H]1[C@H](O)C[C@@H]1[C@@]3(C)CC[C@H](O[C@@H]4O[C@H](CO)[C@@H](O)[C@H](O)[C@H]4O[C@@H]4O[C@H](CO)[C@@H](O)[C@H](O)[C@H]4O)C(C)(C)[C@@H]3CC[C@]12C [Rb2]
Km: 20.4 ± 2.1 mM
